Patent publication US20090143419A1, “METHODS AND COMPOSITIONS FOR CONTROLLING ECTOPARASITES” (HATCHTECH PTY LTD, priority 2005, published 2009)

Experiments:
[1] = tested on: Helicoverpa armigera eggs (Tatura×Toowoomba strains); assay: Egg hatching of Helicoverpa armigera; conditions: Table 14; 10 mM; relative to control
Procedure: Several hundred Helicoverpa armigera eggs (Tatura×Toowoomba strains) were collected, that had been laid on fine mesh cloth over a 24 hour period.
Batches of Helicoverpa eggs were exposed to a specific inhibitor solution for between 2-10 seconds the excess solution drained by blotting with dry tissue paper. The egg masses were then placed in a humid box at 25 degrees until egg hatch. Control eggs were exposed to absolute methanol as described above.

head lice eggs = assay: Assessment of commercial lice products in the standard lice egg-hatching assay; assay type: in vivo; conditions: summary in words
Procedure: These three products were tested according to manufacturer's recommendations. Groups of eggs (24 hr old) were treated with the different products according to manufacturer's recommendations for the appropriate period of time (5-10 minutes) followed by a rinse for 1-2 minutes in 32° C. water. A positive controls (10 mM 1,10-phenanthroline) and two negative controls (no treatment and 20% Methanol) were also incorporated. Post exposure to the different products, the eggs were rinsed with warm water at 32° C. before being blotted dry on tissue paper and placed at 32° C., 70% RH and left to hatch. A second group of eggs, (48 hr old) were treated as previously described and also left to hatch. This process was repeated at 24 hr intervals on head lice eggs up to 120 hr post laying. This method of assaying inhibitors more closely mirrors the field situation where lice eggs will be at various stages of development on the head and permits the inhibitory effects to be observed on these different stages of the parasite.
These two products were tested according to manufacturer's recommendations. Groups of eggs (24 hr old) were treated with the different products according to manufacturer's recommendations for the appropriate period of time (5-10 minutes) followed by a rinse for 1-2 minutes in 32° C. water. Two negative controls (no treatment and 20% ethanol) were also incorporated. […]

lice eggs = assay: Lice egg-hatch bioassay, eggs treated five days post laying; assay type: in vivo, clothing lice (Pediculus humanus humanus)
Procedure: To evaluate the potential effects of protease inhibitors on lice egg hatching it was necessary to develop a reliable in vitro bioassay. Male and female clothing lice were fed on a rabbit as previously described. […] During this period the female lice laid their eggs and attached them to the woven cloth. All lice would then be removed and the eggs permitted to incubate for the following 5 days. […] The eggs would then progress through to their final stages of development and hatch. In untreated control eggs a reliable average percentage hatch of between 85-95 percent was obtained using the in vitro egg hatch assay. […] Lice eggs were laid onto cloth as described above. […] Protease inhibitor solutions were typically prepared as stock solutions and added fresh at the appropriate concentration. Specifically stock solutions were prepared as follows: 1,10-phenanthroline (200 mM in methanol) and bestatin (5 mg/ml in methanol). In addition, the equivalent levels of the solvent were added to the non-inhibitor containing controls eggs to test for any buffer alone effects. Percentage hatch inhibition was calculated as the percentage reduction in egg hatch compared to the untreated control.

[2] = tested on: Plutella xylostella eggs (Waite strain); assay: Egg hatching of Plutella xylostella; conditions: Table 9; 10 mM; relative to control (100% MeOH)
Procedure: The egg masses were then placed in a humid box at 25 degrees until egg hatch. Control eggs were exposed to absolute methanol as described above. At day 6 post laying the eggs were assessed from the different treatments and the percentage of egg hatch determined relative to the control as shown in Table 9.
Batches of Plutella eggs that were laid on either fine cloth or parafilm were dipped in a specific inhibitor solution for between 2-10 seconds, the excess solution was drained by blotting with dry tissue paper. The egg masses were then placed in a humid box at 25 degrees until egg hatch. Control eggs were exposed to absolute methanol as described above or not treated. At day 6 post laying the eggs were assessed from the different treatments and the percentage of egg hatch determined relative to the controls as shown in Tables 10 and 11.
Batches of Plutella eggs that were laid on fine cloth were dipped in a specific inhibitor solution for approximately 2 seconds, the excess solution was drained by blotting with dry tissue paper. The egg masses were then placed in a humid box at 25 degrees until egg hatch. Control eggs were exposed to absolute methanol as described above or not treated. At day 6 post laying the eggs were assessed from the different treatments and the percentage of egg hatch determined relative to the control as shown in Table 12.
The egg masses were then placed in a humid box at 25 degrees until egg hatch. Control eggs were exposed to absolute ethanol as described above. On day 6 post laying the eggs were assessed from the different treatments and the percentage of egg hatch determined relative to the control.

[3] = tested on: lice hatching proteases in the egg shell washings (ESW); assay: Gelatine substrate SDS-PAGE of egg shell washings treated with protease inhibitors; assay type: biochemical, Pediculus humanus humanus; conditions: 10 mM inhibitor; 3 hrs at 37° C.
Procedure: Within 12 hours of hatching 50 body lice eggs (Pediculus humanus humanus) were removed from the hair and placed in a 1 ml eppendorf tube. 20 μL of distilled water was added to the unhatched eggs and the preparation incubated for 30 minutes at 32° C. The 20 μL was recovered, freeze dried and stored at −70° C. A number of other samples were also collected as described. Hair samples from which unhatched lice eggs had been removed were also collected and incubated as described above. In addition, a sample of unhatched eggs and a sample of hair from which lice eggs had been removed were collected 7 days post laying (within 24 hrs of egg hatching). Both samples were washed in 10 mls of a 1% solution of sodium hypochlorite for 1 minute followed by a 5×1 minute washes in 25 mls in distilled water to remove the hypochlorite. These samples were then incubated in 20 μL of distilled water as described above. In addition, a group of 25 lice eggs that were within 24 hours of hatching, were pretreated with 1% sodium hypochlorite, washed as described above and left to hatch. Within 1-2 hours after hatching the empty egg shells were incubated in 20 μL of distilled water as described above, the washings collected from the hatched egg shells and stored at −70° C. All of the extract samples were then freeze-dried overnight. The freeze-dried samples were then resuspended in 15 μL of non-reducing SDS sample buffer, centrifuged at 10,000 g for 2 minutes and the entire 15 μL loaded on to 10% gelatine substrate SD S-PAGE gels. Gels were run at 4° C. for 10 minutes at 10 mA followed by a further 25 minutes at 15 mA per gel. They were then incubated for 2×20 minutes in a 2.5% Triton-X 100 solution followed by a three hour incubation in 0.1M Tris/HCl containing 1 mM CaCl2 pH 8.0. Activity was detected as clear areas on the gel the result of protease activity degrading the gelatine within the gel.
10% SDS-PAGE gelatine substrate gels were loaded with freeze dried egg shell washings from 100 lice eggs that had been resuspended in 50 μl of non-reducing sample buffer with samples run at 10 μl per lane. Gels were run at 4° C. for 10 minutes at 10 mA per gel followed by a further 25 minutes at 15 mA per gel. Gels were then cut into strips and each strip incubated for 2×20 minutes in a 2.5% Triton-X 100 solution containing a specific inhibitor. The inhibitors used were the serine protease inhibitor PMSF (5 mM), the metalloprotease inhibitor 1,10-phenanthroline (10 mM), the aspartic protease Pepstatin (5 μM) and the cysteine inhibitor E-64 (10 μM). The gel strips were then incubated in 0.1M Tris/HCl containing 1 mM CaCl2 pH 8 containing the different protease inhibitors for 3 hrs at 37° C., before being stained in Coomassie blue and destained as previously described.

Question: With c1cnc2c(c1)ccc1cccnc12 [1,10-phenanthroline] as the molecule, how does the “% Inhibition” value [1] read?
Answer: The value was “able to inhibit egg hatching”.

Question: And the “ovicidal activity across the different stages of lice egg hatching” value (head lice eggs)?
Answer: Its value is “highly effective at inhibiting lice egg hatching”.

Question: What about the “egg hatching in lice” value (lice eggs; 10 mM, eggs treated 5 days post laying) of the same molecule?
Answer: Its value is “significantly inhibited egg hatching”.

Question: And the “inhibition of egg hatching” value (lice eggs; added within 24 hours of hatching)?
Answer: Its value is “variable inhibition”.

Question: And the “% Inhibition” value [2]?
Answer: The value was “significantly inhibit egg hatching”.

Question: And the “protease activity of the ESW” value [3]?
Answer: Its value is “significant reduction in protease activity”.
